Like-named read-outs stand apart in the source and are kept apart here. Marks after values point to notes of the source that are not given here.
Key:
Format in all cases: cell-based
Herpes virus of type I = experiment: Protection of Vero cells from Herpes virus of type I; settings: for Number of cells: number of cells in 100 fields
[1] = system: Human Immunodeficiency Virus Type 1; experiment: Anti-HIV activity: protection of MT4 T-lymphoblastoid cells (IFA)
Description: (§1) Activity against the Human immunodeficiency Virus (HIV) was also determined and, more specifically, the compounds antiviral effectiveness in protecting the T-lymphoblastoid cells MT4 from being infected by the virus-containing liquid of HTHIV27 cultures. The cells infected by the virus were analyzed according to the following methods: (1) An indirect immunofluorescence (IFA) with a polyclonal anti-serum was received from an HIV Infected human (the antibody titer in the IFA was 1:1000000) and, (2) A competitive IFA was utilized with monoclonal antibodies (MonAb) to p24 HIV and a polyclonal substrate. A solution of 1:540 was used in the tests. Azidothymidin (AZT) was used as the control.
The results documented in the table shown in TABLE 6 evidence that the compounds tested inhibit the reproduction of the Human Immunodeficiency Virus Type 1.

[2] = system: Human Immunodeficiency Virus; experiment: Anti-HIV activity alone and in combination with azidothymidin in MT4 cells
Description: as §1, with “[…] The methods utilized to analyze the compounds effectiveness were the same” for “Azidothymidin (AZT) was used”, “foregoing methods.” for “control.”

Influenza virus A = system: Influenza virus A
Influenza virus B = system: Influenza virus B
[3] = system: Chlamydia trachomatis D323; experiment: Protection of cell culture from Chlamydia trachomatis (immunofluorescence, cytoplasmatic inclusions)
Text: The antiviral activity of the claimed compounds were also all tested against the Chlemydia trachomatis. The effects of the claimed compounds on the Chlamydia trachomatis are charted in TABLE 4. A relative strain of Chlamydia trachomatis D323 was used to test the claimed compounds. The strain, derived from a patient with Chlamydia urethritis, comprised a morphology and a physiological activity characteristic of and representative of that type. An infection dose of Chlamydia having a concentration of 1/10^6 cells/ml was introduced into a cell culture. Immunofluorescence (MicroTrack Chlamydia trachomatis Direct Specimen Test) was conducted to determine the significance of the chlamydial cytoplasmatic inclusions (CPI). A CylaMonoScreen was conducted to obtain the chlamydia antigens. The monolayer state and the number of cells with CPI were compared to the control to determine the effects the claimed compounds have on the chlamydia. The number of unchanged cells in 100 visual fields were counted utilizing a special net on a microscopic eyepiece.

[4] = Influenza virus A, 48 hours at 33-34 C, ineffective when IN less than 1.0
[5] = Influenza virus B, 72 hours at 33-34 C, ineffective when IN less than 1.0

| Compound | percentage of protection of cells from virus (Herpes virus of type I; compound 10 mg/l) | percentage of protection of cells from virus (Herpes virus of type I; compound 50 mg/l) [%] | percentage of protection of cells from virus (Herpes virus of type I; compound 100 mg/l) [%] | Number of cells (Herpes virus of type I; compound 10 mg/l) | Number of cells (Herpes virus of type I; compound 50 mg/l) | Number of cells (Herpes virus of type I; compound 100 mg/l) | Level of inhibition of virus reproduction ([1]; 5 mg/l) [%] | Level of inhibition of virus reproduction ([1]; 50 mg/l) [%] | Level of inhibition of virus reproduction ([1]; 100 mg/l) [%] | Level of inhibition of virus reproduction ([2]; 0.05 mg/l) [%] | Level of inhibition of virus reproduction ([2]; 5.0 mg/l) [%] | Index of neutralization (Influenza virus A; [4]) | Index of neutralization (Influenza virus B; [5]) | Percentage of cells' defense from C. trachomatis ([3]; compound 30 mg/l) [%] | Percentage of cells' defense from C. trachomatis ([3]; compound 100 mg/l) [%] | Index of neutralization (Influenza virus A) | Index of neutralization (Influenza virus B) |
| --- | --- | --- | --- | --- | --- | --- | --- | --- | --- | --- | --- | --- | --- | --- | --- | --- | --- |
| 4-chlorine-6-hydroxi-5-aryl-5,9-dihydro-1H-pyrano[2,3d: 6,5-d′]dipyrimidine-2-8-dition [Iib] | 70% | 90 | 100 | 8400 | 10800 | 12000 | – | – | – | – | – | – | – | – | – | – | – |
| Cc1cn([C@H]2C[C@H](N=[N+]=[N-])[C@@H](CO)O2)c(=O)[nH]c1=O [AZT, Azidothymidin, reference compound] | – | – | – | – | – | – | 100 | 100 | 100 | 50 | 100 | – | – | – | – | – | – |
| O=[N+]([O-])c1ccc(C2c3c(O)nc(=S)[nH]c3Oc3[nH]c(=S)nc(Sc4nc(O)cc(O)n4)c32)cc1 (stereo not drawn) [X, 4-(4,6-dihydroxipirimidine-2sulfanil)-6-hydroxi-5-(4-nytrophenyl)-5,9-dihydro-1H-pyrano [2,3-d: 6,5-d′]dipyrimidine-2,8-dition] | 60% | 80 | 90 | 7200 | 9600 | 10800 | – | – | – | – | – | 1.5 | 1.0 | 60 | 100 | – | – |
| Nc1nc(=S)[nH]c2c1C(c1ccc([N+](=O)[O-])cc1)c1c(O)nc(=S)[nH]c1O2 (stereo not drawn) [III, 4-amino-6-hydroxi-5-(4-nitrophenyl)-5,9-dihydro-1H-pyrano[2,3-d: 6,5-d′]dipyrimidine-2,8-dition] | 70% | 80 | 100 | 8400 | 9600 | 12000 | 70 | 90 | 100 | – | – | 0.5 | 1.0 | 70 | 100 | – | – |
| Nc1nc2c(ncn2COCCO)c(=O)[nH]1 [Acyclovir, reference compound] | (80%)**** | – | – | 9600*** | – | – | – | – | – | – | – | – | – | – | – | – | – |
| Nc1nc(=S)[nH]c2c1C(c1ccc([N+](=O)[O-])cc1)c1c(N)nc(=S)[nH]c1N2 [VI, 4,5-diamino-10-(4-nytrophenyl)-9,10-dihydro-1H,8H-1,3,6,8,9-pentaazaantrecen-2,7dition] | 70% | 90 | 100 | 8400 | 10800 | 12000 | – | – | – | – | – | 20 | 1.5 | 50 | 80 | – | – |
| CN(C)c1nc(=S)[nH]c2c1C(c1ccc([N+](=O)[O-])cc1)c1c(O)nc(=S)[nH]c1O2 (stereo not drawn) [IX, 4-dimethylamine-6-hydroxi-5-(4-nitrophenyl)-5,9-dihydro-1H-pyrano[2,3-d: 6,5-d′]dipyrimidine-2,8-dition] | 50% | 70 | 80 | 6000 | 8400 | 9600 | – | – | – | – | – | – | – | 50 | 80 | 2.0 | 1.5 |
| O=[N+]([O-])c1ccc(C2c3c(O)nc(=S)[nH]c3Oc3[nH]c(=S)nc(O)c32)cc1 [XII] | 10% | 30 | 50 | 1200 | 3600 | 6000 | – | – | – | – | – | – | – | 40 | 60 | – | – |
| O=[N+]([O-])c1ccc(C2c3c(Cl)nc(=S)[nH]c3Oc3[nH]c(=S)nc(Cl)c32)cc1 [Iia, 4,6-dichlorine-5-(4-nitrophenyl)-5,9-dihydro-1H-pyrano[2,3-d: 6,5-d′]dipyrimidine-2,8-dition] | – | – | – | – | – | – | – | – | – | – | – | 1.5 | 1.5 | 70 | 90 | – | – |
| CNc1nc(=S)[nH]c2c1C(c1ccc([N+](=O)[O-])cc1)c1c(O)nc(=S)[nH]c1O2 (stereo not drawn) [VIII, 4-methylamino-6-hydroxi-5-(4-nitrophenyl)-5,9-dihydro-1H-pyrano[2,3d: 6,5-d′]dipyrimidine-2,8-dition] | – | – | – | – | – | – | – | – | – | – | – | 2.0 | 1.5 | 70 | 90 | – | – |
| Oc1nc(=S)[nH]c2c1C(c1ccccc1)c1c(Cl)nc(=S)[nH]c1O2 (stereo not drawn) [Ia, 4-chlorine-6-hydroxi-5-aryl-5,9-dihydro-1H-pyrano[2,3d: 6,5-d′]dipyrimidine-2,8-dition] | 60% | 80 | 90 | 7200 | 9600 | 10800 | – | – | – | – | – | – | – | – | – | – | – |
| O=[N+]([O-])c1ccc(C2c3cnc(=S)[nH]c3Oc3[nH]c(=S)nc(O)c32)cc1 (stereo not drawn) [XI, 6-hydroxi-5-4-(4-nitrophenyl)-5,9-dihydro-1H-pyrano[2,3-d: 6,5-d′]dipyrimidine-2,8-dition] | 50% | 70 | 80 | 6000 | 8400 | 9600 | – | – | – | – | – | 1.5 | 1.5 | 50 | 90 | – | – |
| Nc1nc(=S)[nH]c2c1C(c1ccc([N+](=O)[O-])cc1)c1c(N)nc(=S)[nH]c1O2 [V, 4,6-diamino-5-(4-nytrophenyl)-5,9-dihydro-1H-pyrano[2,3-d: 6,5-d′]dipyrimidine-2,8-dition] | 60% | 80 | 90 | 7200 | 9600 | 10800 | 90 | 100 | 100 | – | – | 1.0 | 1.5 | 50 | 80 | – | – |
| Nc1nc(=S)[nH]c2c1C(c1ccc([N+](=O)[O-])cc1)c1c(Cl)nc(=S)[nH]c1O2 (stereo not drawn) [IV, 4-chlorine-6-amino-5-(4-dinytrophenyl)-5,9-dihydro-1H-pyrano[2,3-d: 6,5-d′]dipyrimidine-2,8-dition] | 50% | 70 | 80 | 6000 | 8400 | 9600 | – | – | – | – | – | 2.0 | 1.5 | 50 | 80 | – | – |

Reference: US7557116B2, “Substance which exhibits antiviral and antibacterial activity and is based on derivatives of 2,8-dithioxo-1H-pyrano[2,3d 6,5-d′]dipyrimidyne and 10-aza-analogue thereof” (priority 2003, dated 2009)
